Laboratory results taken from PubChem BioAssay (NCI).
“And” between values parts separate entries of the source, which are not always exact repeats. Identical values can stand only once.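 Five concentrations, 48 hours, 96-well plates. GI50 is the concentration that inhibits growth by half. At the TGI there is no net growth.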

Assays:
Assay in all cases: NCI-60 cell line screen, 48 h
A498 renal = test system: A498 renal
DLD-1 colon = test system: DLD-1 colon
DMS 114 small cell lung = test system: DMS 114 small cell lung
DMS 273 small cell lung = test system: DMS 273 small cell lung
HOP-18 NSCLC = test system: HOP-18 NSCLC
KM20L2 colon = test system: KM20L2 colon
LXFL 529 NSCLC = test system: LXFL 529 NSCLC
M19-MEL melanoma = test system: M19-MEL melanoma
NCI-H522 lung = test system: NCI-H522 lung
OVCAR-4 ovarian = test system: OVCAR-4 ovarian
SF-268 CNS = test system: SF-268 CNS
SK-MEL-28 melanoma = test system: SK-MEL-28 melanoma
SK-OV-3 ovarian = test system: SK-OV-3 ovarian
SN12C renal = test system: SN12C renal
SNB-75 CNS = test system: SNB-75 CNS
U251 CNS = test system: U251 CNS
XF 498 CNS = test system: XF 498 CNS

CCC1(N=[N+]=[N-])C(=O)c2ccccc2N(C)C1=O (stereo not drawn)
TGI (A498 renal): > 100 µM
TGI (DLD-1 colon): > 100 µM
TGI (DMS 114 small cell lung): > 100 µM
TGI (DMS 273 small cell lung): > 100 µM
TGI (HOP-18 NSCLC): > 100 µM
TGI (KM20L2 colon): > 100 µM
TGI (LXFL 529 NSCLC): > 100 µM
TGI (M19-MEL melanoma): > 100 µM
TGI (NCI-H522 lung): > 100 µM
TGI (OVCAR-4 ovarian): > 100 µM
TGI (SF-268 CNS): > 100 µM
TGI (SK-MEL-28 melanoma): > 100 µM
TGI (SK-OV-3 ovarian): > 100 µM
TGI (SN12C renal): > 100 µM
TGI (SNB-75 CNS): > 100 µM
TGI (U251 CNS): > 100 µM

Brc1ccc(C[P+]2(c3ccccc3)CCCCC2)cc1
TGI (A498 renal): > 100 µM
TGI (DLD-1 colon): > 100 µM
TGI (DMS 114 small cell lung): > 100 µM
TGI (DMS 273 small cell lung): > 100 µM
TGI (HOP-18 NSCLC): > 100 µM
TGI (KM20L2 colon): > 100 µM
TGI (LXFL 529 NSCLC): > 100 µM
TGI (M19-MEL melanoma): 76.4 µM
TGI (NCI-H522 lung): > 100 µM
TGI (SK-MEL-28 melanoma): > 100 µM
TGI (SK-OV-3 ovarian): > 100 µM
TGI (SN12C renal): > 100 µM
TGI (SNB-75 CNS): 77.1 µM
TGI (U251 CNS): > 100 µM

NC(N)=NC(N)=Nc1ccc(S(=O)(=O)O)cc1
TGI (A498 renal): > 100 µM
TGI (NCI-H522 lung): > 100 µM
TGI (OVCAR-4 ovarian): > 100 µM
TGI (SF-268 CNS): > 100 µM
TGI (SK-MEL-28 melanoma): > 100 µM
TGI (SK-OV-3 ovarian): > 100 µM
TGI (SN12C renal): > 100 µM
TGI (SNB-75 CNS): > 100 µM
TGI (U251 CNS): > 100 µM

O=S(=O)(Nc1nc2ccccc2nc1Nc1ccc2ccccc2c1)c1ccccc1
TGI (A498 renal): > 100 µM
TGI (NCI-H522 lung): 39.6 µM
TGI (OVCAR-4 ovarian): > 44.9 µM
TGI (SF-268 CNS): > 67.7 µM
TGI (SK-MEL-28 melanoma): > 100 µM
TGI (SK-OV-3 ovarian): > 100 µM
TGI (SN12C renal): > 68.9 µM
TGI (SNB-75 CNS): > 73.6 µM
TGI (U251 CNS): > 100 µM

N#CN/C(N)=N/C/N=C(\N)NC#N
TGI (A498 renal): > 100 µM
TGI (DLD-1 colon): > 100 µM
TGI (DMS 114 small cell lung): > 100 µM
TGI (DMS 273 small cell lung): > 100 µM
TGI (HOP-18 NSCLC): > 100 µM
TGI (KM20L2 colon): > 100 µM
TGI (LXFL 529 NSCLC): > 100 µM
TGI (M19-MEL melanoma): > 100 µM
TGI (NCI-H522 lung): > 100 µM
TGI (OVCAR-4 ovarian): > 100 µM
TGI (SF-268 CNS): > 100 µM
TGI (SK-MEL-28 melanoma): > 100 µM
TGI (SK-OV-3 ovarian): > 100 µM
TGI (SN12C renal): > 100 µM
TGI (SNB-75 CNS): > 100 µM
TGI (U251 CNS): > 100 µM

O=C(c1nc2ccc([N+](=O)[O-])cc2[nH]c1=O)C(O)c1ccc2c(c1)OCO2 (stereo not drawn)
TGI (A498 renal): > 100 µM
TGI (DLD-1 colon): > 100 µM
TGI (DMS 114 small cell lung): > 100 µM
TGI (DMS 273 small cell lung): > 100 µM
TGI (HOP-18 NSCLC): > 100 µM
TGI (KM20L2 colon): > 100 µM
TGI (LXFL 529 NSCLC): > 100 µM
TGI (M19-MEL melanoma): > 100 µM
TGI (NCI-H522 lung): > 100 µM
TGI (OVCAR-4 ovarian): > 100 µM
TGI (SF-268 CNS): > 100 µM
TGI (SK-MEL-28 melanoma): > 100 µM
TGI (SK-OV-3 ovarian): > 100 µM
TGI (SN12C renal): > 100 µM
TGI (SNB-75 CNS): > 100 µM
TGI (U251 CNS): > 100 µM

CN(C(=O)Cc1ccccc1)n1cnn(CC(=O)OC(C)(C)C)c1=S
TGI (A498 renal): > 10 µM
TGI (NCI-H522 lung): > 10 µM
TGI (OVCAR-4 ovarian): > 10 µM
TGI (SF-268 CNS): > 10 µM
TGI (SK-MEL-28 melanoma): > 10 µM
TGI (SK-OV-3 ovarian): > 10 µM
TGI (SN12C renal): > 10 µM
TGI (SNB-75 CNS): > 10 µM
TGI (U251 CNS): > 10 µM

C=C(C(=O)O)[C@@H]1C[C@@H]2O[C@H]1[C@@H](O)[C@@H](C)CCCC(C)=CCC[C@@]2(C)O
TGI (A498 renal): > 100 µM
GI50 (NCI-H522 lung): 29.3 µM and 67.6 µM
TGI (NCI-H522 lung): > 100 µM
TGI (OVCAR-4 ovarian): > 100 µM
TGI (SF-268 CNS): > 100 µM
TGI (SK-MEL-28 melanoma): > 100 µM
TGI (SK-OV-3 ovarian): > 100 µM
TGI (SN12C renal): > 100 µM
TGI (SNB-75 CNS): > 100 µM
TGI (U251 CNS): > 100 µM

NC(=S)/N=C(/c1nc2ccc(Cl)cc2[nH]c1=O)C(O)c1ccccc1Cl (stereo not drawn)
TGI (A498 renal): > 100 µM
TGI (DLD-1 colon): > 100 µM
TGI (DMS 114 small cell lung): > 100 µM
TGI (DMS 273 small cell lung): > 100 µM
TGI (HOP-18 NSCLC): > 100 µM
TGI (KM20L2 colon): > 100 µM
TGI (LXFL 529 NSCLC): > 100 µM
TGI (NCI-H522 lung): > 100 µM
TGI (OVCAR-4 ovarian): > 100 µM
TGI (SF-268 CNS): > 100 µM
TGI (SK-MEL-28 melanoma): > 100 µM
TGI (SK-OV-3 ovarian): > 100 µM
TGI (SNB-75 CNS): > 100 µM
TGI (U251 CNS): > 100 µM
TGI (XF 498 CNS): > 100 µM

COC(=O)C1Cc2cc3c(cc2C1=O)CCCC3 (stereo not drawn)
TGI (A498 renal): > 100 µM
TGI (NCI-H522 lung): > 100 µM
TGI (OVCAR-4 ovarian): > 100 µM
TGI (SF-268 CNS): > 100 µM
TGI (SK-MEL-28 melanoma): > 100 µM
TGI (SK-OV-3 ovarian): > 100 µM
TGI (SN12C renal): > 100 µM
TGI (SNB-75 CNS): > 100 µM
TGI (U251 CNS): > 100 µM

[N-]=[N+]=NC(c1cn(C2CC(O)C(CO)O2)c(=O)[nH]c1=O)C(Br)Br (stereo not drawn)
TGI (DLD-1 colon): > 100 µM
TGI (DMS 114 small cell lung): > 100 µM
TGI (DMS 273 small cell lung): > 100 µM
TGI (HOP-18 NSCLC): > 100 µM
TGI (KM20L2 colon): > 100 µM
TGI (LXFL 529 NSCLC): > 100 µM
TGI (M19-MEL melanoma): > 100 µM
TGI (NCI-H522 lung): > 100 µM
TGI (SK-MEL-28 melanoma): > 100 µM
TGI (SK-OV-3 ovarian): > 100 µM
TGI (SN12C renal): > 100 µM
TGI (SNB-75 CNS): > 100 µM
TGI (U251 CNS): > 100 µM

O=C(/C=C/c1ccc(-c2ccccc2)cc1)NCc1ccc(C(=O)NCc2ccccc2)cc1
TGI (A498 renal): > 100 µM
TGI (NCI-H522 lung): > 100 µM
TGI (OVCAR-4 ovarian): > 100 µM
TGI (SF-268 CNS): > 100 µM
TGI (SK-MEL-28 melanoma): > 100 µM
TGI (SK-OV-3 ovarian): > 100 µM
TGI (SN12C renal): > 100 µM
TGI (SNB-75 CNS): > 100 µM
TGI (U251 CNS): > 100 µM

CC(=N\N)/C(C)=N/N=C(C)/C(C)=N/N
TGI (A498 renal): > 100 µM
TGI (NCI-H522 lung): > 100 µM
TGI (OVCAR-4 ovarian): > 100 µM
TGI (SF-268 CNS): > 100 µM
TGI (SK-MEL-28 melanoma): > 100 µM
TGI (SK-OV-3 ovarian): > 100 µM
TGI (SN12C renal): > 100 µM
TGI (SNB-75 CNS): > 100 µM
TGI (U251 CNS): > 100 µM

O=C1c2ccccc2C(=O)c2cc(N=Nc3c(O)ccc4ccccc34)ccc21
TGI (A498 renal): > 100 µM
TGI (NCI-H522 lung): > 100 µM
TGI (OVCAR-4 ovarian): > 100 µM
TGI (SF-268 CNS): > 100 µM
TGI (SK-MEL-28 melanoma): > 100 µM
TGI (SK-OV-3 ovarian): > 100 µM
TGI (SN12C renal): > 100 µM
TGI (SNB-75 CNS): > 100 µM
TGI (U251 CNS): > 100 µM

COc1ccc(-n2[nH]nc(C(N)=O)c2=O)cc1
TGI (A498 renal): > 100 µM
TGI (NCI-H522 lung): > 100 µM
TGI (OVCAR-4 ovarian): > 100 µM
TGI (SF-268 CNS): > 100 µM
TGI (SK-MEL-28 melanoma): > 100 µM
TGI (SK-OV-3 ovarian): > 100 µM
TGI (SN12C renal): > 100 µM
TGI (SNB-75 CNS): > 100 µM
TGI (U251 CNS): > 100 µM

CCCCCCCCCCCCCCCCNC(=O)C(=O)/C=C(\O)c1ccc(C)cc1
TGI (A498 renal): > 10 µM
TGI (NCI-H522 lung): > 10 µM
TGI (OVCAR-4 ovarian): > 10 µM
TGI (SF-268 CNS): > 10 µM
TGI (SK-MEL-28 melanoma): > 10 µM
TGI (SK-OV-3 ovarian): > 10 µM
TGI (SN12C renal): > 10 µM
TGI (SNB-75 CNS): > 10 µM
TGI (U251 CNS): > 10 µM

O=C(O)C(O)C(O)C(=O)O (stereo not drawn)
TGI (A498 renal): > 100 µM
TGI (NCI-H522 lung): > 100 µM
TGI (OVCAR-4 ovarian): > 100 µM
TGI (SF-268 CNS): > 100 µM
TGI (SK-MEL-28 melanoma): > 100 µM
TGI (SK-OV-3 ovarian): > 100 µM
TGI (SN12C renal): > 100 µM
TGI (SNB-75 CNS): > 100 µM
TGI (U251 CNS): > 100 µM

C=CCC1CC(n2cc(C)c(=O)[nH]c2=O)OC1CO[Si](C)(C)C(C)(C)C (stereo not drawn)
TGI (A498 renal): 34.5 µM
TGI (NCI-H522 lung): 23.1 µM
TGI (OVCAR-4 ovarian): 28.5 µM
TGI (SF-268 CNS): 30.9 µM
TGI (SK-MEL-28 melanoma): 30.4 µM
TGI (SK-OV-3 ovarian): 29.2 µM
TGI (SN12C renal): 29.1 µM
TGI (SNB-75 CNS): 25.4 µM
TGI (U251 CNS): 29.6 µM

O=C1c2cc(Cl)ccc2NC(=NC2CCCC2)C2CSCN12 (stereo not drawn)
TGI (A498 renal): > 100 µM
TGI (NCI-H522 lung): > 100 µM
TGI (OVCAR-4 ovarian): > 100 µM
TGI (SF-268 CNS): > 100 µM
TGI (SK-MEL-28 melanoma): > 100 µM
TGI (SK-OV-3 ovarian): > 100 µM
TGI (SN12C renal): > 100 µM
TGI (SNB-75 CNS): > 100 µM
TGI (U251 CNS): > 100 µM
